The text below walks through data of publication PMC5831858, “Pharmacological characterisation of CR6086, a potent prostaglandin E2 receptor 4 antagonist, as a new potential disease-modifying anti-rheumatic drug” (Arthritis Research & Therapy, 2018).

Where two headings read alike, the source gives them in different places.

The target in one test is rat EP4 receptor (Rattus norvegicus, UniProt P43114). Put plainly: EP4 radioligand binding assay ([^3H]PGE2), rat receptor. On the set-up: the cDNA encoding the full-length rat (NM_032076) or mouse (NM_001136079) EP4 receptors; host or cells: HEK293 (transient). The source says: For rodent EP4 receptor cloning, the cDNA encoding the full-length rat (NM_032076) or mouse (NM_001136079) EP4 receptors cloned in pCMV6 entry was provided by OriGene Inc. (TrueORF Gold, catalogue numbers RN206839 and MC216813; OriGene, Rockville, MD, USA). Expression of rat and mouse receptors was obtained by transfecting HEK293 cells with the respective vector using Lipofectamine 3000 reagent (Thermo Fisher Scientific) according to the manufacturer’s instructions.
Sequence of rat EP4 receptor (P43114 whole entry): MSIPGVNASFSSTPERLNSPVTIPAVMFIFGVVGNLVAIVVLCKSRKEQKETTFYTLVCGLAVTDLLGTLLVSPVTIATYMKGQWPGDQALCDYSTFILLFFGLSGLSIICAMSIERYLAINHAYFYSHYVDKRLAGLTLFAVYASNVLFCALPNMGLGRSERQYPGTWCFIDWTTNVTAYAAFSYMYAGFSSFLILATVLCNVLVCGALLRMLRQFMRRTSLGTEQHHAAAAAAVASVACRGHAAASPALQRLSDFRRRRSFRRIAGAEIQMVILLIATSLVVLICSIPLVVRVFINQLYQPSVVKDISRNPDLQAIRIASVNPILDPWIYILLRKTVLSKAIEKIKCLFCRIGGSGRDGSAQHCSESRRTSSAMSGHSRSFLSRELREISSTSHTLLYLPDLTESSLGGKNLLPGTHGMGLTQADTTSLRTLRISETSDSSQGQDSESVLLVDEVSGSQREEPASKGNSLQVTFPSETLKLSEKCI
Membranes expressing the human EP4 receptor were prepared from stably transfected HEK293 cell line. […] Protein content of the cell membrane suspension was determined using bovine serum albumin (BSA) as a standard.
Experimental procedures were performed according to the method of Abramovitz et al.. […] The residual [^3H]PGE2 binding was determined using a solid scintillation counter (TopCount; PerkinElmer) after at least 1 h of stabilisation. In saturation binding studies, isotherm-binding curves generated with six to eight different concentrations of [^3H]PGE2 (from 0.5 to 25 nM) were evaluated. […]
Specific binding to the receptors was defined as the difference between total binding and non-specific binding, as determined in the presence of an excess of unlabelled ligand. […] Competition curves were analysed to assess the half-maximal inhibitory concentration (IC50). […] The results of replicated curves were expressed as mean ± SEM.

Another test concerns GABA (non-selective). Put plainly: GABA receptor (non-selective) binding. To be noted: [^3H]GABA, Rat cerebral cortex.
The target of the next test is M5 (Homo sapiens, UniProt P08912). Put plainly: Muscarinic acetylcholine receptor M5 binding. To be noted: [^3H]4-DAMP, Human recombinant CHO cells, read-out: CR6086 Activity at 10µM.
Sequence of M5 (P08912 whole entry): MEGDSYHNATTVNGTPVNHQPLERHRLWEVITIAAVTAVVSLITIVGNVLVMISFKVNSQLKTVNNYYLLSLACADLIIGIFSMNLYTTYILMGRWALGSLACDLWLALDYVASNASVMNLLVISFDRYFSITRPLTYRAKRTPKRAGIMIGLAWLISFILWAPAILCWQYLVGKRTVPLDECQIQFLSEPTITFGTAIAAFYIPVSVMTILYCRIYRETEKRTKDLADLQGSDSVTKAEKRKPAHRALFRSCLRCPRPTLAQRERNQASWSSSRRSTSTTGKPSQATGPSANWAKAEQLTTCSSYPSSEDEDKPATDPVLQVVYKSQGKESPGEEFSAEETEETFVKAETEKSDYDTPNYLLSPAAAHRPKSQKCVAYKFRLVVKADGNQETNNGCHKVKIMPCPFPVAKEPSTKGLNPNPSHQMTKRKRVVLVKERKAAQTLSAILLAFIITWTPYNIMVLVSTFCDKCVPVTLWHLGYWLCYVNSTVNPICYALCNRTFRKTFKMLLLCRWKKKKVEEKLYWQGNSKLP
A further test has as its target PAC1 (PACAP) (Homo sapiens, UniProt P41586). Put plainly: PAC1 receptor binding. The conditions noted are these: [^125I]PACAP1-27, Human recombinant CHO cells, read-out: CR6086 Activity at 10µM.
For the next test, the target named is µ (MOP) (Homo sapiens, UniProt P35372). Put plainly: Opioid receptor µ (MOP) binding. The conditions noted are these: [^3H]DAMGO, Human recombinant HEK-293 cells, read-out: CR6086 Activity at 10µM.
Sequence of µ (MOP) (P35372 whole entry): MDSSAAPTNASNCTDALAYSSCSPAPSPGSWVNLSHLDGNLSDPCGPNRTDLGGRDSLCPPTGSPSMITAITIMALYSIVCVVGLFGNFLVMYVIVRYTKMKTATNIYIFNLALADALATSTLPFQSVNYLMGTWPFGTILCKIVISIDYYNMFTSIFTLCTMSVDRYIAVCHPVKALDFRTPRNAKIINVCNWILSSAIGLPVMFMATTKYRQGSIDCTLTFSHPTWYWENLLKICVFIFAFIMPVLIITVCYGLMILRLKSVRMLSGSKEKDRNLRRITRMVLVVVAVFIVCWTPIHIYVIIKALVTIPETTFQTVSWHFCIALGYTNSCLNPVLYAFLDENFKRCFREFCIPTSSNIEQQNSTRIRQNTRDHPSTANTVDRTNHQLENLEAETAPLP
The test system of test [1] is arthritic mice (collagen-induced arthritis model). Put plainly: CIA in mice, first study: clinical score and paw swelling. The class given is in vivo, mouse. The conditions noted are these: 10 days; CR6086 30 and 60 mg/kg, naproxen 60 mg/kg oral once daily; etanercept 10 mg/kg i.p. every other day. How it is done: Male DBA/1 mice were immunised by intradermal injection at the base of the tail with an emulsion of 200 μg of bCII in CFA containing 3 mg/ml Mycobacterium tuberculosis. Non-immunised mice served as the negative control of disease. Animals were monitored by visual inspection for appearance of peripheral oedema. […] Upon onset, animals were recruited and randomised. Recruitment was given a cut-off at day 40. Upon recruitment, arthritis clinical score was assigned, and oedema was measured via caliper.
In a first study, mice were randomised into the following treatment groups: vehicle, 30 mg/kg CR6086, 60 mg/kg CR6086, 60 mg/kg naproxen and 10 mg/kg etanercept. Animals received the test drugs for 10 days. CR6086 and naproxen were administered orally once daily, whereas etanercept was administered intraperitoneally every other day. Animals treated with vehicle, 60 mg/kg CR6086, naproxen and etanercept were additionally analysed for the proportion of populations of Th17 cells, Th1 cells, regulatory T cells, B cells, macrophages, neutrophils and dendritic cells by fluorescence-activated cell sorting (FACS) after collection of blood, draining lymph nodes and joints.
Oedema measurement was performed every day before treatment, and all animals were blindly scored for clinical signs of arthritis as follows: 0 = normal; 1 = slight swelling and/or erythema; 2 = pronounced oedematous swelling; and 3 = ankyloses and severe swelling. A score of 0.5 was given to swollen toe/toes or when inflammation was localised to one part of the foot. Each limb was measured separately, with a final score based on the sum of the scores from all four paws.

The next test addresses 5-HT1A (Homo sapiens, UniProt P08908). Put plainly: Serotonin receptor 5-HT1A binding. To be noted: [^3H]8-OH-DPAT, Human recombinant HEK-293 cells, read-out: CR6086 Activity at 10µM.

Sequence of 5-HT1A (P08908 whole entry): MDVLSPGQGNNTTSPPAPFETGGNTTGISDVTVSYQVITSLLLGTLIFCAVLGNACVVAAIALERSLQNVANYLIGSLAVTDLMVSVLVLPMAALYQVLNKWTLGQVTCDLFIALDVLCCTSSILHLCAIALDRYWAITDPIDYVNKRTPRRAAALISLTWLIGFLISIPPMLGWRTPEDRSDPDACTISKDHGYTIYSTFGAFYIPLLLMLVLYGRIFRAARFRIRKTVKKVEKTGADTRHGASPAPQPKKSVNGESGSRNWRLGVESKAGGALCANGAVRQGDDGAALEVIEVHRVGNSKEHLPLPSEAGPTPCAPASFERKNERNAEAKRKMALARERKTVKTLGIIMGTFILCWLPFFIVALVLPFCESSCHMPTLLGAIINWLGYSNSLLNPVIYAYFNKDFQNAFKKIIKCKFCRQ
Sequence of PAC1 (PACAP) (P41586 21-468): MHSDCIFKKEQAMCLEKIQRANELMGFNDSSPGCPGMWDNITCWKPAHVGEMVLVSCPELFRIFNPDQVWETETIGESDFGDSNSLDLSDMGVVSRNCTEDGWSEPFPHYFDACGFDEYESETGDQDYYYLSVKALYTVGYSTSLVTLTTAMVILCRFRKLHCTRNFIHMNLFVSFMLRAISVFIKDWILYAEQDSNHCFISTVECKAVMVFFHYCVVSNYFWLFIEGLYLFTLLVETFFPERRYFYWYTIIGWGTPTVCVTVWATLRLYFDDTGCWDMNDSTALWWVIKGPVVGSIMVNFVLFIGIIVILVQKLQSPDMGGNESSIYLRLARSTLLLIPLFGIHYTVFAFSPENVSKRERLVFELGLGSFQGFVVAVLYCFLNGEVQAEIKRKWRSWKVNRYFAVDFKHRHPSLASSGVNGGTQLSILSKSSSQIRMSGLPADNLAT

By Ki is commonly meant a measure of affinity in units of concentration, obtained from inhibition or displacement. `O=C([O-])c1ccc(C2(NC(=O)[C@H]3CC4(CCN3Cc3ccc(C(F)(F)F)cc3)CC4)CC2)cc1.[Na+]` [CR6086, Sodium (R)-4-(1-(6-(4-(trifluoromethyl)benzyl)-6-azaspiro[2.5]octane-5-carboxamido)cyclopropyl)benzoate]: the Ki at rat EP4 receptor ([^3H]PGE2 displacement, transiently transfected HEK293 membranes, read-out: Ki CR6086) is 76.6 ± 12.3 nM; on rat EP4 receptor (expressed as mass concentration, read-out: Ki value for the rat EP4 receptor (converted)), 73.2 nM. For the same compound, in the test with GABA (non-selective), the “CR6086 Activity at 10µM” value is recorded as “IN (IN = < 20% displacement or inhibition (all tables))”. Also, the inhibition at 10 µM on M5, on PAC1 (PACAP), on µ (MOP) and at 5-HT1A was less than 20% each time. For the same compound, in test [1], the “effect on disease parameters (visual clinical score, paw swelling) vs vehicle” value was “significantly improved”.
